Results as given in ChEMBL document CHEMBL1201862, “PubChem BioAssay data set” (2004).
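These data come from cells grown in 96-well plates and exposed to compound for 48 hours at five concentrations. The concentration for 50% growth inhibition is given as GI50.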 Calls of active or inactive are those of the source. Cut-off read from the data, not from the text of the source: active = GI50 up to about 1.1 µM and inactive = higher.

Tests used:
Experiment in all cases: inhibition of tumour cell growth, NCI panel, 48 h
[1] = system: TK-10
[2] = system: SK-MEL-28
[3] = system: Malme-3M
[4] = system: SK-MEL-2
[5] = system: K562
[6] = system: HOP-92
[7] = system: OVCAR-8
[8] = system: NCI-H460
[9] = system: UACC-257
[10] = system: OVCAR-5
[11] = system: MOLT-4
[12] = system: A549
[13] = system: NCI-H226
[14] = system: OVCAR-3
[15] = system: NCI-H23
[16] = system: KM12
[17] = system: 786-0
[18] = system: UO-31
[19] = system: CAKI-1
[20] = system: NCI-H522

Row | Structure (SMILES) | GI50 [1] | GI50 [2] | GI50 [3] | GI50 [4] | GI50 [5] | GI50 [6] | GI50 [7] | GI50 [8] | GI50 [9] | GI50 [10] | GI50 [11] | GI50 [12] | GI50 [13] | GI50 [14] | GI50 [15] | GI50 [16] | GI50 [17] | GI50 [18] | GI50 [19] | GI50 [20]
1 | CN(C)CC1CCC/C(=C\c2ccc(OC(=O)c3ccc(Cl)cc3)cc2)C1=O (stereo unspecified) | 1.95 µM (inactive) | 3.15 µM (inactive) | 2.55 µM (inactive) | 4.31 µM (inactive) | 0.912 µM (active) | 2.07 µM (inactive) | 1.58 µM (inactive) | 5.36 µM (inactive) | 4.29 µM (inactive) | 2.25 µM (inactive) | 0.661 µM (active) | 2.38 µM (inactive) | 3.06 µM (inactive) | 1.6 µM (inactive) | 1.69 µM (inactive) | 1.57 µM (inactive) | 0.867 µM (active) | 1.5 µM (inactive) | 2.19 µM (inactive) | 
2 | CC(=O)OCC1OC(n2c3c(c(-c4ccc(Cl)cc4)c(C#N)c2=S)CCCC3)C(OC(C)=O)C(OC(C)=O)C1OC(C)=O (stereo unspecified) | 44.9 µM (inactive) | 32.4 µM (inactive) | 56.8 µM (inactive) | 30.6 µM (inactive) | 44 µM (inactive) | 7.29 µM (inactive) | > 100 µM (inactive) | 42.5 µM (inactive) | 51.9 µM (inactive) | > 100 µM (inactive) | 25.1 µM (inactive) | 36.1 µM (inactive) | 36.6 µM (inactive) | 21.7 µM (inactive) | 46.5 µM (inactive) | 71.4 µM (inactive) | 80.7 µM (inactive) | 4.4 µM (inactive) |  | 40.7 µM (inactive)
3 | O=C1OC(=O)c2c1c(-c1ccccc1)cn2-c1ccc(Cl)cc1 | > 100 µM (inactive) | > 100 µM (inactive) | > 100 µM (inactive) | > 100 µM (inactive) | 2.22 µM (inactive) | > 100 µM (inactive) | > 100 µM (inactive) | > 100 µM (inactive) | > 100 µM (inactive) | > 100 µM (inactive) | 15 µM (inactive) | 83 µM (inactive) | > 100 µM (inactive) | 54.7 µM (inactive) | > 100 µM (inactive) | 86.1 µM (inactive) | > 100 µM (inactive) | > 100 µM (inactive) |  | 67.3 µM (inactive)
4 | Cc1ccc(C(=O)/C=C(\O)C(=O)NN=C(c2ccccc2)c2ccccc2)cc1 | > 100 µM (inactive) | > 100 µM (inactive) | > 100 µM (inactive) | > 100 µM (inactive) | 17.3 µM (inactive) | 28 µM (inactive) | 76.4 µM (inactive) | 40.6 µM (inactive) | > 100 µM (inactive) | > 100 µM (inactive) | 58.9 µM (inactive) | 41.2 µM (inactive) | > 100 µM (inactive) | > 100 µM (inactive) | > 100 µM (inactive) | 77.4 µM (inactive) | 28.4 µM (inactive) | 55.6 µM (inactive) | > 100 µM (inactive) | 
5 | CCSC1=N/C(=C\c2ccco2)C(Cl)=N1 | > 100 µM (inactive) | > 100 µM (inactive) |  | > 100 µM (inactive) | > 100 µM (inactive) | > 100 µM (inactive) | > 100 µM (inactive) | > 100 µM (inactive) | > 100 µM (inactive) | > 100 µM (inactive) | > 100 µM (inactive) | > 100 µM (inactive) | > 100 µM (inactive) | > 100 µM (inactive) | > 100 µM (inactive) | > 100 µM (inactive) | > 100 µM (inactive) | > 100 µM (inactive) | > 100 µM (inactive) | 
6 | COC(=O)C(C)(C)[C@@H]1OC(=O)N(S(=O)(=O)c2c(C)cc(C)cc2C)[C@H]1C(C)C | > 100 µM (inactive) | > 100 µM (inactive) | > 100 µM (inactive) | 95.7 µM (inactive) | > 100 µM (inactive) | 23.1 µM (inactive) | > 100 µM (inactive) | 55 µM (inactive) | 60.3 µM (inactive) | > 100 µM (inactive) | 40 µM (inactive) | 85.7 µM (inactive) | 27.4 µM (inactive) | 89.9 µM (inactive) | 46.8 µM (inactive) | 91.4 µM (inactive) | > 100 µM (inactive) | > 100 µM (inactive) |  | > 100 µM (inactive)
7 | CCCCCCCCCCCCNC(=S)OC | 19.5 µM (inactive) | 16.9 µM (inactive) | 15.5 µM (inactive) | 16.8 µM (inactive) | 17.5 µM (inactive) | 7.08 µM (inactive) | 15.8 µM (inactive) | 17.3 µM (inactive) | 16.7 µM (inactive) | 16.3 µM (inactive) | 2.16 µM (inactive) | 17.5 µM (inactive) |  |  | 17.8 µM (inactive) | 15.4 µM (inactive) | 15.8 µM (inactive) | 4.13 µM (inactive) | 14.8 µM (inactive) | 13.2 µM (inactive)
8 | CC(=O)c1ccc2c(c1)CC1(C2)Cc2cc3c(cc2C1=O)CCC3 (stereo unspecified) | 25.7 µM (inactive) | 24.6 µM (inactive) | 13.3 µM (inactive) | 21.7 µM (inactive) | 16.5 µM (inactive) | 25.9 µM (inactive) | 16.1 µM (inactive) | 26.1 µM (inactive) | 15 µM (inactive) | 30.6 µM (inactive) | 4.28 µM (inactive) | 20.9 µM (inactive) |  | 16.1 µM (inactive) | 21.5 µM (inactive) | 17.5 µM (inactive) | 19.3 µM (inactive) | 26.1 µM (inactive) | 12.9 µM (inactive) | 22.7 µM (inactive)
9 | O=C(N/C(=C\c1ccc(Oc2ccc(Cl)c(Cl)c2)cc1)c1nc2ccccc2[nH]1)c1ccccc1 | 26.1 µM (inactive) | 18.4 µM (inactive) | 20.9 µM (inactive) | 19.2 µM (inactive) | 8.91 µM (inactive) | 10.4 µM (inactive) | 14.6 µM (inactive) |  |  | 22.4 µM (inactive) | 18.7 µM (inactive) | 17.9 µM (inactive) |  | 17.3 µM (inactive) | 13.3 µM (inactive) | 15.3 µM (inactive) | 17.3 µM (inactive) | 14.1 µM (inactive) | 21 µM (inactive) | 15.9 µM (inactive)
10 | CN(C(=O)C12C3C4C1C1C2C3C41C(N)=O)C(C)(C)C (stereo unspecified) | > 100 µM (inactive) | > 100 µM (inactive) | > 100 µM (inactive) |  | > 100 µM (inactive) | > 100 µM (inactive) | > 100 µM (inactive) | > 100 µM (inactive) |  | > 100 µM (inactive) | > 100 µM (inactive) | > 100 µM (inactive) | > 100 µM (inactive) | > 100 µM (inactive) | > 100 µM (inactive) | > 100 µM (inactive) | > 100 µM (inactive) | > 100 µM (inactive) | > 100 µM (inactive) | > 100 µM (inactive)
11 | O=C1Oc2ccccc2C(=O)/C1=C\NC(=S)c1ccncc1 | > 100 µM (inactive) | 45.9 µM (inactive) |  | 42.3 µM (inactive) |  | > 100 µM (inactive) | 99.3 µM (inactive) | 57.7 µM (inactive) | > 100 µM (inactive) | > 100 µM (inactive) | 95.1 µM (inactive) | > 100 µM (inactive) | > 100 µM (inactive) | 71.6 µM (inactive) | > 100 µM (inactive) | > 100 µM (inactive) | > 100 µM (inactive) | 45.7 µM (inactive) | 51.3 µM (inactive) | 
12 | O=C(/C=C/c1ccc(Cl)c(Cl)c1)c1cccc2ccccc12 | 16.8 µM (inactive) | 17.8 µM (inactive) | 18.4 µM (inactive) |  | 3.17 µM (inactive) | 16.8 µM (inactive) | 2.16 µM (inactive) | 5.81 µM (inactive) | 15.9 µM (inactive) | 13.8 µM (inactive) |  | 15.7 µM (inactive) | 14.4 µM (inactive) | 6.32 µM (inactive) | 8.17 µM (inactive) | 4.4 µM (inactive) | 3.4 µM (inactive) | 19.6 µM (inactive) | 7.36 µM (inactive) | 2.97 µM (inactive)
13 | COc1ccc(/C=C/C(=O)c2sc(N)nc2C)cc1 | > 100 µM (inactive) | > 100 µM (inactive) | > 100 µM (inactive) | > 100 µM (inactive) | > 100 µM (inactive) | > 100 µM (inactive) | > 100 µM (inactive) | > 100 µM (inactive) | > 100 µM (inactive) | > 100 µM (inactive) | > 100 µM (inactive) | > 100 µM (inactive) |  | 41 µM (inactive) | > 100 µM (inactive) | > 100 µM (inactive) | > 100 µM (inactive) | > 100 µM (inactive) | > 100 µM (inactive) | > 100 µM (inactive)
14 | O=c1cc(O)c2ccccc2o1 [4-HYDROXYCOUMARINS] | > 100 µM (inactive) | > 100 µM (inactive) | > 100 µM (inactive) |  | > 100 µM (inactive) | > 100 µM (inactive) | > 100 µM (inactive) | > 100 µM (inactive) | > 100 µM (inactive) | > 100 µM (inactive) | > 100 µM (inactive) | > 100 µM (inactive) | > 100 µM (inactive) | > 100 µM (inactive) | > 100 µM (inactive) | > 100 µM (inactive) | > 100 µM (inactive) | > 100 µM (inactive) | > 100 µM (inactive) | > 100 µM (inactive)
15 | O=c1oc(-c2ccc(O)c(O)c2)cc2cccc(O)c12 [THUNBERGINOL A] | 4.9 µM (inactive) |  | 31.3 µM (inactive) | 26.1 µM (inactive) | 22.1 µM (inactive) | 2.07 µM (inactive) | 36.6 µM (inactive) | 13.4 µM (inactive) | 22.6 µM (inactive) | 22 µM (inactive) | 3.42 µM (inactive) | 35.4 µM (inactive) |  | 10.5 µM (inactive) | 16.1 µM (inactive) | 11.4 µM (inactive) | 19.6 µM (inactive) | 14.7 µM (inactive) | 6.71 µM (inactive) | 15.4 µM (inactive)
